Bounds are passed on as bounds.

This assay can be described thus: Biochemical Assay : 5 μl WT full length PAICS (final assay concentration, fac, 2.5 nM) in basic buffer, added to black, non-binding, 384-well plates (Corning #3575), columns 1 to 22. 5 μl basic buffer was added to columns 23+24 (negative control). PAICS stock at 31.9 μM from the PI's lab (Steve Firestine). Basic buffer contained 50 mM Tris-HCl pH8 and 0.5 mM EDTA, fac.1 μl compound in 100% DMSO added per well, or 1 μl 100% DMSO to positive controls (columns 1+2) and negative controls (columns 23+24). Final assay top concentration of compound either 1 mM or 30-μM, serially diluted with half-log dilutions across the plate in duplicate (one 10-point concentration response curve across wells 3 to 12, another across 13 to 22). Compounds pre-incubated with PAICS enzyme for 30 mins at RT. 2 μl CAIR added (fac 10 μM) in basic buffer plus 25 mM MgCl2 and 50 mM KHCO3 fac to all wells. CAIR stock 50 mM from Steve Firestine's lab. 1 hr RT incubation for AIR-CAIR equilibration. NB: ˜50% CAIR is decarboxylated during equilibration therefore 5 μM remains for the synthetase reaction.2 μl ATP/aspartic acid added (fac 30 μM/180 μM) in reaction buffer to all wells. 30 mins RT incubation for appropriate level of ATP turnover. […].

The term IC50 denotes the concentration that gives 50% inhibition. Regarding `Nc1nc(C(=O)Nc2cc(N3CCN(C(=O)OCC4CNC4)CC3)ccc2Cl)co1`, the IC50 is more than 100 nM.

These data come from ChEMBL document CHEMBL5728360, “Oxazole derivatives for use in the treatment of cancer” (2021).
